The values that follow come from a melting point compilation (Tetko et al.; mined from patent text by program, amines drawn as free bases though some values may be those of a salt).

The melting point is the temperature of the solid-liquid transition. In turn, `O=C(NC(O)C(Cl)(Cl)Cl)c1cc([N+](=O)[O-])ccc1O` (stereo not drawn) gave a melting point of 223 to 225 °C.
As for `Cc1ccc2[nH]c(-c3ccc(S(C)(=O)=O)cc3)c(-c3ccccc3)c2c1`, the figure is 245 to 247 °C; as for `COc1cccc(C(=O)Nc2c[nH]nc2C(=O)NCCC#N)c1`, 118 to 121 °C; as for `CCOc1cc(N(CC)CC)ccc1C=O`, 58 to 59 °C.
On to `CCCCN(CC)CC(=O)N1c2ccccc2NC(=O)c2cncnc21`, for which the melting point lay in the range of 151 to 152 °C.
As for `CC(C)S(=O)(=O)c1ccc(S(=O)(=O)C(C)C)nc1`, the figure is 181 °C.
For `O=C(NCC(=O)N(c1ccccc1)c1ccccc1)Nc1cccc(O)c1`, the melting point amounted to 244 °C.
The figure for `COC(=O)c1nc(C)c(-c2ccnc3ccccc23)s1` is 116 to 117 °C; for `C=C1CCCC2(C)C1=CC(=O)C1C3CCC(=O)C3(C)CCC12` (stereo not drawn) it is 132 °C.
Consider `Cc1nc2ccc3c(c2o1)OC(CN1CC=C(c2ccccc2)CC1)CO3` (stereo not drawn), for which the melting point lay in the range of 170 to 173 °C.
The figure for `CC(C)NCC(O)COc1ccccc1-n1cccc1` (stereo not drawn) is 80 to 81 °C.
`CCC1N=C(c2ccccc2Cl)c2cc(CC(=O)OC)sc2-n2c(C)nnc21` (stereo not drawn) displayed a melting point of 134 to 137 °C.
For `Cc1cc(C)n(-c2nc(Nc3ccc(Cl)c(Cl)c3)c3ccccc3n2)n1`, the melting point lay within 224 to 226 °C.
Take `CN1CCc2nc(C(=O)N[C@@H]3C[C@@H](C(=O)O)CC[C@H]3NC(=O)c3cc4cc(Cl)ccc4[nH]3)sc2C1`: the melting point fell in the range of 234 to 236 °C.
The figure for `Cc1ccc(-c2nc3ccccc3s2)cc1` is 84 to 85 °C.
The figure for `O=C1Nc2ccccc2C1c1nc(Cl)nc2nn(C3CCCC3)cc12` (stereo not drawn) is 270 to 273 °C; for `COCC1(C)OC(=O)N(c2cc(Cl)cc(Cl)c2)C1=O` (stereo not drawn) it is 108 to 111 °C; for `O=c1oc(-c2ccc([N+](=O)[O-])cc2)nn1-c1ccc(C(F)(F)F)cc1` it is 160 to 163 °C.
The figure for `CCCc1ccc(C(=O)Nc2ccc3c(c2)CCC3=O)cc1` is 181 to 184 °C; for `CCCCCCOCC1CN(c2cc3c(cc2F)c(=O)c(C(=O)O)cn3CC)CCN1C` (stereo not drawn) it is 172 to 174 °C.
Molecule `CC(=O)Nc1cc(C)cc(N)c1` had a melting point of 123 °C.
The figure for `O=C(c1ccc(OC2CCOCC2)cc1)c1ccc([N+](=O)[O-])cc1` is 105 to 106 °C; for `CC(C)C1C(=O)Nc2ccc(OCC3CO3)cc21` (stereo not drawn) it is 122 to 125 °C.
As for `CCNC(=O)C1OC(n2cnc3c(NC(=O)Nc4ccc(S(=O)(=O)N5CCCCC5)cc4)ncnc32)C(O)C1O` (stereo not drawn), the figure is 176 to 178 °C; as for `Cc1ccc(Cn2ncnc2C(NS(=O)(=O)c2ccc(Cl)s2)C(C)C)cc1` (stereo not drawn), 124 to 125 °C; as for `CC(=O)c1ccc(Nc2cnc3c(NCc4ccccc4)nc(NCCO)nc3c2)cc1`, 125 to 126 °C.
As for `ClCc1coc(-c2ccoc2)n1`, the figure is 70 to 71 °C; as for `COc1cc2cc3c(Nc4ccc(OCc5ccccc5)c(Cl)c4)c(C#N)cnc3cc2cc1OCCCl`, 182 to 185 °C; as for `FC(F)(F)c1cccc(-c2nc(-c3ccccn3)no2)c1`, 116 to 118 °C.
The molecule `O=Cc1c2ccccc2cc2cc(Cl)ccc12` returned a melting point of 122 to 124 °C.
The figure for `CCCc1nn(-c2ccc(C(F)(F)F)cn2)cc1CCCOc1cccc(C(C)(C)C(=O)O)c1` is 82 to 83 °C; for `COc1ccc(C2CN(O)C3(C)CCCCC23)cc1OC` (stereo not drawn) it is 147 to 149 °C; for `COC(=O)c1ccccc1NC(=O)Cc1ccccc1C` it is 80 to 82 °C.
Consider `O=C(O)c1ccc(-c2cn(-c3ccc(OC(F)(F)F)cc3)cn2)cc1`, for which the melting point came to 230 °C.
The figure for `COc1ccc(Br)cc1C(=O)C(Br)C(Br)c1cccc(Br)c1` (stereo not drawn) is 124 to 126 °C; for `N#Cc1c(N2CCc3ccccc3CC2)nc(CCO)n(CCO)c1=O` it is 164 °C.
The figure for `COc1nc(C)c(N2CCCn3c2nc2c(Cl)ccc(C(O)(C4CC4)C4CC4)c23)c(C)n1` is 220 to 221 °C; for `CCCn1c(CCOC)nc2c(N)nc3cc(OCCCNC(=O)OC(C)(C)C)ccc3c21` it is 134 to 135 °C; for `CCCCNCc1ccc(-c2ccccc2S(=O)(=O)NC(C)(C)C)cc1` it is 98 to 99 °C.
As for `Cc1cc(C#N)c(C)c(C(=O)Nc2ccn(C)n2)n1`, the figure is 180 °C.
On to `O=C1/C(=C(\NC2CCCCC2)c2ccccc2)Sc2ccccc21`, for which the melting point fell in the range of 122 to 123 °C.
`O=CCCc1cc(F)c2ncc(C(=O)NCc3ccc(Cl)cc3)c(O)c2c1` gave a melting point of 242 to 244 °C.
`CC(=O)Oc1ccc([C@@H]2O[C@H]2CO)cc1`: the melting point is 59 to 61 °C.
On to `Cc1cc(C)c2c(c1O)C(=O)C(C)(Cc1ccccc1)C2` (stereo not drawn), for which the melting point lay in the range of 86 to 87 °C.
As for `CN(C)S(=O)(=O)NC(=O)N1CC(c2ccccc2)C(c2ccc(Cl)cc2)=N1` (stereo not drawn), the figure is 210 to 212 °C.
Molecule `CS(=O)(=O)Nc1ccc2c(c1)c(C(=O)C(=O)NC1=CC(=O)OC1)cn2Cc1ccc(C(F)(F)F)cc1` yielded a melting point of 267 to 269 °C.
As for `CCNC(=O)c1ccc(F)c(NC(=O)c2cc(C(C)(C)C)nn2CC)c1`, the figure is 188 °C.
As for `Cc1cc(C(=O)C(=O)c2ccc(OC(F)F)cc2)ccc1F`, the figure is 77 to 78 °C.
As for `COc1cc(C(C)=O)ccc1OCCN1CCN(c2n[nH]c3cc(Cl)ccc23)CC1`, the figure is 154 to 156 °C; as for `Clc1cccc(Nc2ncnc3[nH]nc(NCc4ccc(-c5ccccc5)cc4)c23)c1`, 250 to 252 °C.
`O=C1NC(c2ccccc2)c2cc(Cl)ccc2-n2nc(CO)cc21` (stereo not drawn) registered a melting point of 260 to 262 °C.
As for `CCOC(=O)CCNCC(O)COc1cccc(C)c1` (stereo not drawn), the figure is 57 °C.
The figure for `Cn1c(COc2ccc(CC3SC(=O)NC3=O)cc2)cc2cccnc21` (stereo not drawn) is 183 to 185 °C; for `O=C(O)c1ccc(-c2nnc(-c3ccccc3[N+](=O)[O-])o2)cc1` it is 239 to 240 °C; for `CC(C)CC(C=O)NC(=O)C(Cc1c[nH]cn1)NC(=O)C1Cc2c([nH]c3ccccc23)CN1C(=O)OCc1ccccc1` (stereo not drawn) it is 126 to 130 °C.
The figure for `CSc1nc(C(F)(F)F)c(Br)c(=O)[nH]1` is 215 to 216 °C; for `Cc1nc(-c2ccc(OCC(C)C)c([N+](=O)[O-])c2)sc1C(=O)OCC(C)C` it is 112 to 113 °C.
For the molecule `CN(C)CCCOc1ccc(C[C@H](NC(=O)[C@@H]2CCCN2S(=O)(=O)c2cn(C)cn2)C(=O)O)cc1`, the melting point was over 200 °C.
The figure for `O=[N+]([O-])C1=CN(Cc2ccccc2)C2C([N+](=O)[O-])=CN(Cc3ccccc3)C1N2Cc1ccccc1` is 184 to 185 °C.
As for `O=C(O)CCCC1=C(n2nc(-c3c(-c4ccccc4)nn4ccccc34)ccc2=O)CCCC1`, the figure is 145 to 147 °C; as for `CC(C)(C)c1cc(C(=O)c2cccs2)cc(CN(C2CCCCC2)C2CCCCC2)c1O`, 161 to 162 °C.
The molecule `COc1cc(C)n2nc(SCc3ccccc3)nc2n1` registered a melting point of 112 to 115 °C.
`CCN(CC)OC(=O)c1cc(C(C)(C)C)c(O)c(C(C)(C)C)c1` returned a melting point of 129 to 137 °C.
As for `CCCCCCOc1ccc2c(COC)c(OCCCCCC)ccc2c1COC`, the figure is 103 to 104 °C; as for `COC(=O)C1Oc2ccc(Cl)cc2C(c2ccccc2)(C(C)C)O1` (stereo not drawn), 114 to 115 °C; as for `COC(=O)C1CCC2C3CCC4CC(=O)CCC4(C)C3C(NC3CCCCC3)CC12C` (stereo not drawn), 93 to 94 °C.
As to `N#Cc1cnc2cc(I)ccc2c1Cl`, the melting point was 165 to 167 °C.
As for `N#Cc1ccc(N2C(=O)CNC2=O)c2ccccc12`, the figure is over 275 °C; as for `CCOC(=O)CCC1CCN(C(=O)[C@H](C)NC(=O)c2ccc(C#N)cc2)CC1`, 108 to 109 °C.
As for `CCn1c2ccc(C=O)cc2c2c3ccccc3ccc21`, the figure is 143 to 144 °C; as for `CNS(=O)(=O)c1cc(S(=O)(=O)Cl)c(Cl)cc1N`, 153 to 155 °C; as for `CC(C(=O)O)c1ccc2nc(-c3ccccc3)ccc2c1` (stereo not drawn), 161 to 162 °C.
The figure for `CCN(CC)C(=O)CCc1cc(-c2ccc(Cl)cc2)n(-c2ccc(OC)cc2)n1` is 111 to 112 °C; for `COc1cc(C(=O)O)cc(CCc2ccccc2)c1C(=O)O` it is 242 to 244 °C; for `CC(C)(C)c1cc(CCc2ccccc2NC(=O)N2CCN(C(=O)c3cccnc3)CC2)cc(C(C)(C)C)c1O` it is 171 to 172 °C.
`CN(c1ccc(CCNCC(O)COc2ccc(OCc3ccccc3)cc2)cc1)C1SC(=O)NC1=O` (stereo not drawn) returned a melting point of 51 to 53 °C.
As for `COC(=O)C(CNC(C)=O)c1cccc2ccc(OC)cc12` (stereo not drawn), the figure is 118 to 120 °C.
As for `O=C(O)CCc1c(-c2ccccc2)noc1O`, the figure is 183 to 184 °C.
Consider `COc1cccc(C23CCCC=C2C(=O)N(C)C(=O)C3)c1` (stereo not drawn), for which the melting point was 139 to 141 °C.
The figure for `CCCCCCCCC(c1ccccc1)S(=O)(=O)NC(=O)Nc1c(C(C)C)cccc1C(C)C` (stereo not drawn) is 145 to 146 °C.
Turning to `CCN1CCc2cc(Nc3ncc(Cl)c(Nc4ccccc4C(=O)NC)n3)c(OC)cc2CC1=O`, the melting point lay in the range of 120 to 132 °C.
As for `O=C1CCN(CCCn2c(=O)[nH]c3ccccc32)CC1`, the figure is 134 to 136 °C.
The molecule `COc1nc2ccc(Cl)cc2nc1Cl` gave a melting point of 113 to 114 °C.
`O=C1Nc2cc3c(cc2C12COc1cc4c(cc12)CCO4)OCCO3` (stereo not drawn) had a melting point of over 250 °C.
The figure for `O=C(O)C(Cc1cc(Oc2c(Cl)cc(C(F)(F)F)cc2Cl)ccc1SC(F)(F)F)C(=O)O` is 250 °C; for `CN(C)CCNc1ccc(NCCN(C)C)c2c1C(=O)c1c(O)ccc(O)c1C2=O` it is 236 to 238 °C; for `CC(C)(C)c1cc(CNn2ccnc2)cc(C(C)(C)C)c1O` it is 171 to 174 °C.
The figure for `Cc1cc(-c2ccc(C(F)(F)F)cc2)cc(-c2ccnc(-c3ccc(S(N)(=O)=O)s3)n2)n1` is over 250 °C.
